Results published in patent US12611406B2, “Oxopiperazine derivatives for the treatment of cancer” (Inthera Bioscience AG, priority 2020, dated 2026).
Entries after “also recorded” stand apart in the source; their conditions may differ. Like-named read-outs stand apart in the source and are kept apart here.

Assays:
NCI-H660 = NCI-H660 prostate cancer CDX mouse model; type: in vivo; conditions: for Tumor growth inhibition: 6 weeks
From the text: Left panel: Tumor growth curves. Right panel: Body weight development. The dosing regimen is indicated as dots below the curves. BID: twice daily treatment. QW: once weekly treatment. p.o.: per oral.
NCI-H660 cells represent a rather far advanced PC type in which not only the tumor suppressor functions of Rb1 and p53 have been lost (see Table 1). Furthermore, the cells already have developed a small cell phenotype characteristic of advanced treatment-resistant PC. In contrast, 22Rv1 tumor cells that are wild-type for Rb1 and p53 pathways were less sensitive to Compound 1 treatment when a once weekly dosing scheme was used.
Values larger than 100% indicate tumor regression.

[1] = Single dose oral gavage or intravenous PK in female cynomolgus monkeys, plasma; type: in vivo; conditions: for clearance / Vd / AUC(0-inf) / AUC(0-t) / Cmax / Tmax / half-life: female, cynomolgus monkey, plasma; for clearance: read-out: cleared (Cl), mean rate (converted); for Vd: read-out: mean volume of distribution (Vz)
Protocol: The objective of the study was to determine the PK profile of Compound 1 following a single oral gavage or intravenous injection administration on 5 different occasions to female cynomolgus monkeys.
Compound 1, was administered as consecutive single doses on 5 occasions, separated by a washout period, by either oral gavage (4 and 12 mg/kg, Days 1 and 8) or by slow bolus intravenous (IV) injection (0.2 and 0.6 mg/kg, Days 15 and 22) to a group of female monkeys. In a subset of dosing the influence of grapefruit juice was evaluated (Day 34). Each single dose (Days 1, 8, 15, 22, and 34) was separated by a 7-day washout period. Blood samples were collected on Days 1, 8, 15, 22 and 34 at selected time points, i.e., 15 min, 30 min, as well as 1, 2, 4, 6, 8, and 24 hours relative to treatment for analysis of the concentration of Compound 1 in plasma and subsequent calculation of PK parameters. Additional parameters monitored included mortality, clinical observations and body weight.

[2] = 5-day daily intravenous repeated-dose TK study in CD-1 mice (mesylate salt); type: in vivo; conditions: for half-life: both sexes, CD-1, mouse, blood, intravenous
Protocol: The aim of the present study was to explore the TK of Compound 1 after 5 days of once daily intravenous dosing in male and female CD-1 mice, with a subsequent recovery phase of 9 days.
Compound 1 (mesylate salt) was administered once daily for 5 consecutive days by intravenous injection to groups of CD-1 mice (n=8/sex/group) at dose levels of 0 (control), 0.5, 2, 6, or 12 mg/kg/day. A suspension of 0.5% methylcellulose (w/v) in sterile water was used as vehicle. Blood samples were collected for hematology, clinical chemistry (Day 6 and 15), and pharmacokinetics evaluation.

DU-145 cells = assay: Annexin V staining; type: cell-based
[3] = Plasma protein binding, equilibrium dialysis; type: in vitro ADME; conditions: 37° C, buffer pH 7.4, read-out: Fraction unbound (Fu), Mean
Protocol: Protein binding of Compound 1 to the plasma from several species, i.e., human, cynomolgus monkey, dog, rat, and mouse was investigated in vitro by incubation in plasma and determination of unbound fraction of Compound 1 using equilibrium dialysis. Compound 1 was incubated in 100% species-specific plasma and added to one side of the membrane in an equilibrium dialysis system while buffer (pH 7.4) is added to the other side. The system was allowed to reach equilibrium at 37° C. Compound concentration on both sides of the membrane is measured by liquid chromatography—tandem mass spectroscopy (LC-MS/MS).

PR6512 = PR6512 mouse PDX prostate cancer model, daily oral; type: in vivo
From the text: FIG. 7B the efficacy of Compound 1 in the in vivo mouse PDX prostate cancer model PR6512. […] QD: once daily treatment. po: per os.
Again, an effect of the body weight was detected in all treatment groups (including the vehicle group).

**Q.** With `CC(C)C[C@@H]1NCCN([C@@H](CC(C)C)C(=O)N2CCC3(C[C@@H]2C)OCC(CN2CCCC2)CO3)C1=O` (stereo partly drawn) [Compound 1, (S)-3-isobutyl-1-((S)-4-methyl-1-((S)-8-methyl-3-(pyrrolidin-1-ylmethyl)-1,5-dioxa-9-azaspiro[5.5]undecan-9-yl)-1-oxopentan-2-yl)piperazin-2-one] as the compound, how does the Tumor growth inhibition (NCI-H660; once weekly 15 mg/kg/day, p 0.002) read?
**A.** Its Tumor growth inhibition is 74% (0.002)/.

**Q.** What about the Tumor growth inhibition (NCI-H660; once weekly 30 mg/kg/day, p 0.001) of the same compound?
**A.** Its Tumor growth inhibition is 84% (0.001).

**Q.** What about the tumor growth (NCI-H660; once weekly 60 mg/kg) of the same compound?
**A.** Its tumor growth is “complete block of tumor growth”.

**Q.** What about the Tumor growth inhibition (NCI-H660; once weekly 60 mg/kg/day single dose, p <0.001) of the same compound?
**A.** Its Tumor growth inhibition is 99% (<0.001)/*6 weeks.

**Q.** What about the clearance ([1]; Day 15 (IV 0.2 mg/kg)) of the same compound?
**A.** The clearance was 43.2 mL/min/kg.

**Q.** And the Vd ([1]; Day 15 (IV 0.2 mg/kg))?
**A.** The Vd was 17.4 ± 2.2 L/kg.

**Q.** What about the clearance ([1]; Day 22 (IV 0.6 mg/kg)) of the same compound?
**A.** Its clearance is 41 mL/min/kg.

**Q.** And the Vd ([1]; Day 22 (IV 0.6 mg/kg))?
**A.** Its Vd is 16.9 ± 1.91 L/kg.

**Q.** What about the AUC(0-inf) ([1]; IV 0.2 mg/kg) of the same compound?
**A.** The AUC(0-inf) was 77.4 ng·h/mL.

**Q.** And the AUC(0-t) ([1]; IV 0.2 mg/kg)?
**A.** Its AUC(0-t) is 76.2 ng·h/mL.

**Q.** What about the Cmax ([1]; IV 0.2 mg/kg) of the same compound?
**A.** Its Cmax is 47.6 ng/mL.

**Q.** And the Tmax ([1]; IV 0.2 mg/kg)?
**A.** The Tmax was 0.08 h.

**Q.** What about the half-life ([1]; IV 0.2 mg/kg) of the same compound?
**A.** The half-life was 4.64 h.

**Q.** And the AUC(0-inf) ([1]; IV 0.6 mg/kg)?
**A.** The AUC(0-inf) was 244 ng·h/mL.

**Q.** What about the AUC(0-t) ([1]; IV 0.6 mg/kg) of the same compound?
**A.** Its AUC(0-t) is 240 ng·h/mL.

**Q.** And the Cmax ([1]; IV 0.6 mg/kg)?
**A.** The Cmax was 162 ng/mL.

**Q.** And the Tmax ([1]; IV 0.6 mg/kg)?
**A.** Its Tmax is 0.08 h.

**Q.** And the half-life ([1]; IV 0.6 mg/kg)?
**A.** The half-life was 4.74 h.

**Q.** What about the AUC(0-inf) ([1]; po 4 mg/kg) of the same compound?
**A.** The AUC(0-inf) was 17.3 ng·h/mL.

**Q.** What about the AUC(0-t) ([1]; po 4 mg/kg) of the same compound?
**A.** Its AUC(0-t) is 16.9 ng·h/mL.

**Q.** And the Cmax ([1]; po 4 mg/kg)?
**A.** Its Cmax is 5.52 ng/mL.

**Q.** What about the Tmax ([1]; po 4 mg/kg) of the same compound?
**A.** The Tmax was 0.5 h.

**Q.** And the half-life ([1]; po 4 mg/kg)?
**A.** Its half-life is 4.7 h.

**Q.** And the AUC(0-inf) ([1]; po 12 mg/kg)?
**A.** Its AUC(0-inf) is 133 ng·h/mL.

**Q.** What about the AUC(0-t) ([1]; po 12 mg/kg) of the same compound?
**A.** Its AUC(0-t) is 130 ng·h/mL.

**Q.** What about the Cmax ([1]; po 12 mg/kg) of the same compound?
**A.** The Cmax was 53.6 ng/mL.

**Q.** And the Tmax ([1]; po 12 mg/kg)?
**A.** The Tmax was 0.83 h.

**Q.** And the half-life ([1]; po 12 mg/kg)?
**A.** The half-life was 5.46 h.

**Q.** What about the clinical signs ([1]; intravenous doses up to 0.6 mg/kg) of the same compound?
**A.** The clinical signs was “decrease in appetite”.

**Q.** What about the clinical signs ([1]; single oral doses up to 12 mg/kg) of the same compound?
**A.** Its clinical signs is “did not result in any adverse clinical signs”.

**Q.** What about the “Cmax increase with grapefruit juice prior to dosing” value ([1]; vs animals without grapefruit juice, Day 34) of the same compound?
**A.** The value was 2 fold.

**Q.** And the “group mean initial blood concentration (CO)” value ([2]; 0.5 mg/kg/day, Day 1)?
**A.** Its value is 111 ng/mL.

**Q.** What about the CO ([2]; 0.5 mg/kg/day, Day 5, female) of the same compound?
**A.** Its CO is 112 ng/mL.

**Q.** And the CO ([2]; 0.5 mg/kg/day, Day 5, male)?
**A.** The CO was 191 ng/mL.

**Q.** And the “group mean initial blood concentration (CO)” value ([2]; 2 mg/kg/day, Day 1)?
**A.** Its value is 386 ng/mL.

**Q.** What about the CO ([2]; 2 mg/kg/day, Day 5, female) of the same compound?
**A.** The CO was 391 ng/mL.

**Q.** And the CO ([2]; 2 mg/kg/day, Day 5, male)?
**A.** Its CO is 275 ng/mL.

**Q.** And the “group mean initial blood concentration (CO)” value ([2]; 6 mg/kg/day, Day 1)?
**A.** The value was 1257 ng/mL.

**Q.** And the CO ([2]; 6 mg/kg/day, Day 5, female)?
**A.** Its CO is 641 ng/mL.

**Q.** What about the CO ([2]; 6 mg/kg/day, Day 5, male) of the same compound?
**A.** The CO was 778 ng/mL.

**Q.** And the “group mean initial blood concentration (CO)” value ([2]; 12 mg/kg/day, Day 1)?
**A.** Its value is 1725 ng/mL.

**Q.** And the CO ([2]; 12 mg/kg/day, Day 5, female)?
**A.** The CO was 1548 ng/mL.

**Q.** What about the CO ([2]; 12 mg/kg/day, Day 5, male) of the same compound?
**A.** Its CO is 1531 ng/mL.

**Q.** And the tolerability ([2]; 0.5, 2, 6, and 12 mg/kg/day intravenously once daily for 5 consecutive days)?
**A.** The tolerability was “well tolerated; also recorded: well-tolerated”.

**Q.** What about the half-life ([2]; all groups, Day 1, read-out: terminal half-life) of the same compound?
**A.** The half-life was 1.1 to 1.3 h.

**Q.** And the half-life ([2]; over the dose interval, Day 5, read-out: elimination half-life)?
**A.** The half-life was 1.1 to 1.9 h.

**Q.** What about the “Annexin V staining” value (DU-145 cells) of the same compound?
**A.** Its value is “induction of apoptosis”.

**Q.** What about the fraction unbound ([3]; dog plasma) of the same compound?
**A.** The fraction unbound was 0.619.

**Q.** And the fraction unbound ([3]; human plasma)?
**A.** The fraction unbound was 0.547.

**Q.** And the fraction unbound ([3]; mouse plasma)?
**A.** The fraction unbound was 0.574.

**Q.** What about the fraction unbound ([3]; rat plasma) of the same compound?
**A.** The fraction unbound was 0.528.

**Q.** What about the tumor growth (PR6512; 3 mg/kg QD) of the same compound?
**A.** The tumor growth was “complete block of tumor growth”.

**Q.** And the tumor growth (PR6512; 1, 1.5, 2, and 3 mg/kg daily oral)?
**A.** The tumor growth was “dose dependent growth inhibition of tumors”.

**Q.** And the PSA in blood (PR6512; PR6512)?
**A.** Its PSA in blood is “effective PSA reduction”.
